Earlier results in patent US20230029485A1 (priority 2021, published 2023).

How the values were obtained:
Conditions in all cases: in vivo
[1] = test system: metastatic colorectal cancer
[2] = test system: SARS-CoV-2
[3] = test system: SARS-CoV-2; remark: listed apart in the source

## O=c1[nH]cc(F)c(=O)[nH]1 [5-fluorouracil]
[1]
  objective response rate: around 20%

## CCN(CCO)CCCC(C)Nc1ccnc2cc(Cl)ccc12 (stereo not shown) [HCQ, hydroxychloroquine]
[2]
  developed QT prolongation: nine
  good clinical outcome and a virological cure: 91.7%

## CCC(CC)COC(=O)[C@H](C)N[P@](=O)(OC[C@H]1O[C@@](C#N)(c2ccc3c(N)ncnn23)[C@H](O)[C@@H]1O)Oc1ccccc1 [RDV, Remdesivir]
[3]
  adverse events, share of patients: 60.3%
